Bridge positions count the residues as written; N and C are the ends. Square brackets hold non-standard residues; d marks the D form. Peptide text beside a SMILES is read from it. Hyp = O=C(O)[C@@H]1C[C@@H](O)CN1; Cit = NC(=O)NCCC[C@H](N)C(=O)O
Columns and labels:
[1] = Physical stability of peptide analogues (Thioflavin T fibrillation); type: physicochemical; settings: maximum ThT signal normalized between hAMY maximum and buffer background; 40° C., shaking, four days; pH 7 per table title
Method in brief: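 Maximum ThT emission at 480 nm, after LOESS smoothing, is given as percent of the span from buffer background to hAMY. Conditions: 50 mM buffer at pH 4 or 7, 4 μM dye, 40 °C, repeated shaking, readings every 10 min for four days.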

hAMY3 receptor = biological target: T1, hAMY3 receptor (Homo sapiens, UniProt O60896+P30988); assay: cAMP assay for in vitro receptor activation, hAMY3-R; type: cell-based; settings: cAMP assay, hAMY3 receptor; read-out: hAMY3R EC50
T1 sequence (P30988 25-474): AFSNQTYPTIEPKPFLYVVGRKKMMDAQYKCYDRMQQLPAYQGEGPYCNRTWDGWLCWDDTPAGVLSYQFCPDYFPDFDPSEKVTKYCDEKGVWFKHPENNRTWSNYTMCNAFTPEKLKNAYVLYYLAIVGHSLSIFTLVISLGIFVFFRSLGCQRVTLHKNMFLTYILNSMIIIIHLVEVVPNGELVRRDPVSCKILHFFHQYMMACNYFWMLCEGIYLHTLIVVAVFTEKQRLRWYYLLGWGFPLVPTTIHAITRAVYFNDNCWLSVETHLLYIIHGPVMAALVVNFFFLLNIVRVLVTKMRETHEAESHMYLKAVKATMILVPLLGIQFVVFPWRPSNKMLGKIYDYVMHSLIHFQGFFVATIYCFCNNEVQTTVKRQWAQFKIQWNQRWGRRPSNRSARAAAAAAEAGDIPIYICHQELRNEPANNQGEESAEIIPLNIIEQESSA
T1 sequence (O60896 24-148 partner): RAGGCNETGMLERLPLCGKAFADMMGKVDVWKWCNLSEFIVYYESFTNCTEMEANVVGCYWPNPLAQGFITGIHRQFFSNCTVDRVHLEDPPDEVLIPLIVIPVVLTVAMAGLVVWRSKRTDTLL
Method in brief: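 Accumulated cAMP was detected by time-resolved FRET one hour after reagent addition. Beforehand, hAMY3-R-overexpressing monoclonal cells (2000/well, DPBS, 0.05% casein, 0.5 mM IBMX) received graded doses of compound for 30 min at room temperature; human amylin served as positive control.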

hAM1 receptor = hAM1 receptor (Homo sapiens, UniProt O60895+Q16602); assay: cAMP assay for in vitro receptor activation, hAM1-R; type: cell-based; settings: cAMP assay, hAM1 receptor; read-out: hAM1R EC50
Method in brief: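 A subcloned monoclonal line stably expressing hAM1 receptor is thawed and plated at 8000 cells/well. The assay buffer is DPBS with 0.05% casein and 0.5 mM IBMX, and receptor activation is followed by cAMP levels.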

Sequence of hAM1 receptor (Q16602 23-461): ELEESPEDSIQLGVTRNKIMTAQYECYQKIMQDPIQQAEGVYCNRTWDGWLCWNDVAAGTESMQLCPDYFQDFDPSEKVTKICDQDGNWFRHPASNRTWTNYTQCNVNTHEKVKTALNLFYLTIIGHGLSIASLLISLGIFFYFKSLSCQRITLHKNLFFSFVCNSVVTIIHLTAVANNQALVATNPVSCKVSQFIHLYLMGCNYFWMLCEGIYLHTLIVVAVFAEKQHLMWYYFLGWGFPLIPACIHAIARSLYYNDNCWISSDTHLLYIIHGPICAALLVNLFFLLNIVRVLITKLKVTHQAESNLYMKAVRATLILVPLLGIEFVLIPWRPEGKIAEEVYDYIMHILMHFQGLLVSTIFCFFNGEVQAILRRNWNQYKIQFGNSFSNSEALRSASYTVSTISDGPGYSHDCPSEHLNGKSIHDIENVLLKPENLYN
Sequence of hAM1 receptor (O60895 43-175 partner): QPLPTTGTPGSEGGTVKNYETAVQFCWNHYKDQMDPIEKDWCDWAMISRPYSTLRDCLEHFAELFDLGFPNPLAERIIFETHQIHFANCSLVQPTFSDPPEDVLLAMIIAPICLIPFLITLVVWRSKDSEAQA

| Compound | Max ThT signal (%) [1] [%] | EC50 (hAMY3 receptor) [nM] | EC50 (hAM1 receptor) [nM] |
| --- | --- | --- | --- |
| CC[C@H](C)[C@H](NC(=O)[C@H](CCC(N)=O)NC(=O)[C@H](Cc1c[nH]cn1)NC(=O)[C@H](C)NC(=O)[C@H](CC(C)C)NC(=O)[C@H](CCCNC(=N)N)NC(=O)[C@H](CCC(N)=O)NC(=O)[C@@H](NC(=O)[C@@H](NC(=O)[C@@H]1CSSC[C@H](NC(=O)CN)C(=O)N[C@@H](CCCNC(=N)N)C(=O)N[C@@H](Cc2c[nH]c3ccccc23)C(=O)NCC(=O)N[C@@H]([C@@H](C)O)C(=O)N1)[C@@H](C)O)C(C)C)C(=O)N[C@@H](Cc1ccc(O)cc1)C(=O)N[C@@H](CCC(N)=O)C(=O)N[C@@H](Cc1ccccc1)C(=O)N[C@H](C(=O)N[C@@H](CC(=O)O)C(=O)N[C@@H](CCCCN)C(=O)N[C@@H](Cc1ccccc1)C(=O)N[C@@H](CCCCN)C(=O)N[C@@H](CC(=O)O)C(=O)N[C@@H](CC(N)=O)C(=O)N[C@H](C(=O)N[C@@H](C)C(=O)N1CCC[C@H]1C(=O)N[C@@H](CCCNC(=N)N)C(=O)N[C@@H](CO)C(=O)N[C@@H](CCCCN)C(=O)N[C@H](C(=O)N[C@@H](CO)C(=O)N1CCC[C@H]1C(=O)N[C@@H](CCC(N)=O)C(=O)N[C@H](C(=O)N1C[C@H](O)C[C@H]1C(N)=O)[C@@H](C)O)[C@@H](C)CC)C(C)C)[C@@H](C)O [compound 171] (H-GCRWGTCTVQRLAHQIYQFTDKFKDNVAPRSKISPQT[Hyp]-NH2; disulfide 2-7; N-terminus assumed) | 5.000 | 0.064 | > 5000 |
| CC[C@H](C)[C@H](NC(=O)[C@H](CCC(N)=O)NC(=O)[C@H](Cc1c[nH]cn1)NC(=O)[C@H](C)NC(=O)[C@H](CC(C)C)NC(=O)[C@H](CCCNC(=N)N)NC(=O)[C@H](CCC(N)=O)NC(=O)[C@@H](NC(=O)[C@@H](NC(=O)[C@@H]1CSSC[C@H](NC(=O)[C@@H](N)CCCCN)C(=O)N[C@@H](CC(N)=O)C(=O)N[C@@H]([C@@H](C)O)C(=O)N[C@@H](C)C(=O)N[C@@H]([C@@H](C)O)C(=O)N1)[C@@H](C)O)C(C)C)C(=O)N[C@@H](Cc1ccc(O)cc1)C(=O)N[C@@H](Cc1ccccc1)C(=O)N[C@H](C(=O)N[C@@H](CC(=O)O)C(=O)N[C@@H](CCCCN)C(=O)N[C@@H](CC(=O)O)C(=O)N[C@@H](CCCCN)C(=O)N[C@@H](CC(=O)O)C(=O)N[C@@H](CC(N)=O)C(=O)N[C@H](C(=O)N[C@@H](C)C(=O)N1CCC[C@H]1C(=O)N1CCC[C@H]1C(=O)N[C@H](C(=O)N[C@@H](CC(N)=O)C(=O)N[C@H](C(=O)NCC(=O)N[C@@H](CO)C(=O)N[C@@H](CC(N)=O)C(=O)NCC(=O)N1C[C@H](O)C[C@H]1C(N)=O)C(C)C)[C@@H](C)O)C(C)C)[C@@H](C)O [compound 181] (H-KCNTATCTVQRLAHQIYFTDKDKDNVAPPTNVGSNG[Hyp]-NH2; disulfide 2-7; N-terminus assumed) | 8.800 | 0.082 | > 5000 |
| CC[C@H](C)[C@H](NC(=O)[C@H](CCC(N)=O)NC(=O)[C@H](CC(=O)O)NC(=O)[C@H](C)NC(=O)[C@H](CC(C)C)NC(=O)[C@H](CCCNC(N)=O)NC(=O)[C@H](CC(N)=O)NC(=O)[C@@H](NC(=O)[C@@H](NC(=O)[C@@H]1CSSC[C@H](NC(=O)[C@@H](N)CCCNC(=N)N)C(=O)N[C@@H](CC(N)=O)C(=O)N[C@@H](C)C(=O)N[C@@H](CO)C(=O)N[C@@H]([C@@H](C)O)C(=O)N1)[C@@H](C)O)C(C)C)C(=O)N[C@H](C(=O)N[C@@H](CCC(N)=O)C(=O)N[C@@H](Cc1ccccc1)C(=O)N[C@@H](CO)C(=O)N[C@@H](CC(N)=O)C(=O)N[C@@H](CCCCN)C(=O)N[C@@H](CC(=O)O)C(=O)N[C@@H](CCCCN)C(=O)N[C@@H](C)C(=O)N[C@@H](CCC(N)=O)C(=O)N[C@H](C(=O)N[C@@H](CO)C(=O)N1CCC[C@H]1C(=O)N1CCC[C@H]1C(=O)N[C@H](C(=O)N[C@@H](CCC(=O)O)C(=O)N[C@H](C(=O)NCC(=O)N1CCC[C@H]1C(=O)N[C@@H](CC(N)=O)C(=O)N[C@@H](CO)C(=O)N1C[C@H](O)C[C@H]1C(N)=O)C(C)C)[C@@H](C)O)C(C)C)[C@@H](C)O [compound 245] (H-RCNASTCTVN[Cit]LADQITQFSNKDKAQVSPPTEVGPNS[Hyp]-NH2; disulfide 2-7; N-terminus assumed) | 3.350 | 0.017 | > 5000 |
| CC(C)C[C@H](NC(=O)[C@H](Cc1c[nH]c2ccccc12)NC(=O)[C@H](CCC(N)=O)NC(=O)[C@@H](NC(=O)[C@@H](NC(=O)[C@@H]1CSSC[C@H](NC(=O)CN)C(=O)N[C@@H](CCCNC(=N)N)C(=O)N[C@@H](Cc2ccccc2)C(=O)NCC(=O)N[C@@H]([C@@H](C)O)C(=O)N1)[C@@H](C)O)C(C)C)C(=O)N[C@@H](C)C(=O)N[C@@H](Cc1c[nH]cn1)C(=O)N[C@@H](Cc1ccccc1)C(=O)N[C@@H](CC(C)C)C(=O)N[C@@H](Cc1ccc(O)cc1)C(=O)N[C@@H](CCC(N)=O)C(=O)N[C@@H](Cc1ccccc1)C(=O)N[C@H](C(=O)N[C@@H](CC(=O)O)C(=O)N[C@@H](CCCCN)C(=O)N[C@@H](CC(=O)O)C(=O)N[C@@H](CCCCN)C(=O)N[C@@H](CC(=O)O)C(=O)N[C@@H](CC(N)=O)C(=O)N[C@H](C(=O)N[C@@H](C)C(=O)N1CCC[C@H]1C(=O)N[C@@H](CCCNC(=N)N)C(=O)N[C@H](C(=O)N[C@@H](CC(N)=O)C(=O)N[C@H](C(=O)NCC(=O)N[C@@H](CO)C(=O)N[C@@H](CC(N)=O)C(=O)N[C@H](C(=O)N[C@@H](Cc1ccc(O)cc1)C(N)=O)[C@@H](C)O)C(C)C)[C@@H](C)O)C(C)C)[C@@H](C)O [compound 327] (H-GCRFGTCTVQWLAHFLYQFTDKDKDNVAPRTNVGSNTY-NH2; disulfide 2-7; N-terminus assumed) | 3.600 | 0.09 | > 5000 |
| CC[C@H](C)[C@H](NC(=O)[C@H](CCC(N)=O)NC(=O)[C@H](Cc1c[nH]cn1)NC(=O)[C@H](C)NC(=O)[C@H](CC(C)C)NC(=O)[C@H](CCCNC(=N)N)NC(=O)[C@H](CCC(N)=O)NC(=O)[C@@H](NC(=O)[C@@H](NC(=O)[C@@H]1CSSC[C@H](NC(=O)CN)C(=O)N[C@@H](CCCNC(=N)N)C(=O)N[C@@H]([C@@H](C)O)C(=O)NCC(=O)N[C@@H]([C@@H](C)O)C(=O)N1)[C@@H](C)O)C(C)C)C(=O)N[C@@H](Cc1ccc(O)cc1)C(=O)N[C@@H](CCC(N)=O)C(=O)N[C@@H](Cc1ccccc1)C(=O)N[C@H](C(=O)N[C@@H](CC(N)=O)C(=O)N[C@@H](CCCCN)C(=O)N[C@@H](CC(=O)O)C(=O)N[C@@H](CCCCN)C(=O)N[C@@H](CC(=O)O)C(=O)N[C@@H](CC(N)=O)C(=O)N[C@H](C(=O)N[C@@H](C)C(=O)N1CCC[C@H]1C(=O)N[C@@H](CCCNC(=N)N)C(=O)N[C@@H](CO)C(=O)N[C@@H](CCCCN)C(=O)N[C@H](C(=O)N[C@@H](CO)C(=O)N1CCC[C@H]1C(=O)N[C@@H](CCC(N)=O)C(=O)N[C@@H](Cc1ccccc1)C(=O)N1C[C@H](O)C[C@H]1C(N)=O)[C@@H](C)CC)C(C)C)[C@@H](C)O [compound 238] (H-GCRTGTCTVQRLAHQIYQFTNKDKDNVAPRSKISPQF[Hyp]-NH2; disulfide 2-7; N-terminus assumed) | 0.600 | 0.235 | > 5000 |
| CC[C@H](C)[C@H](NC(=O)[C@H](CCC(N)=O)NC(=O)[C@H](Cc1c[nH]cn1)NC(=O)[C@H](C)NC(=O)[C@H](CC(C)C)NC(=O)[C@H](CCCNC(N)=O)NC(=O)[C@H](CCC(N)=O)NC(=O)[C@@H](NC(=O)[C@@H](NC(=O)[C@@H]1CSSC[C@H](NC(=O)[C@@H](N)CCCCN)C(=O)N[C@@H](CC(N)=O)C(=O)N[C@@H]([C@@H](C)O)C(=O)N[C@@H](C)C(=O)N[C@@H]([C@@H](C)O)C(=O)N1)[C@@H](C)O)C(C)C)C(=O)N[C@@H](Cc1ccc(O)cc1)C(=O)N[C@@H](CCC(N)=O)C(=O)N[C@@H](Cc1ccccc1)C(=O)N[C@H](C(=O)N[C@@H](CC(=O)O)C(=O)N[C@@H](CCCCN)C(=O)N[C@@H](CC(=O)O)C(=O)N[C@@H](CCCCN)C(=O)N[C@@H](CC(=O)O)C(=O)N[C@@H](CC(N)=O)C(=O)N[C@H](C(=O)N1CCC[C@H]1C(=O)N1CCC[C@H]1C(=O)N[C@H](C(=O)N[C@@H](CC(N)=O)C(=O)N[C@H](C(=O)NCC(=O)N[C@@H](CO)C(=O)N[C@@H](CC(N)=O)C(=O)NCC(=O)N1C[C@H](O)C[C@H]1C(N)=O)C(C)C)[C@@H](C)O)C(C)C)[C@@H](C)O [compound 254] (H-KCNTATCTVQ[Cit]LAHQIYQFTDKDKDNVPPTNVGSNG[Hyp]-NH2; disulfide 2-7) | 12.050 | 0.006 | > 5000 |

Reference: patent US12139520B2 (priority 2020, dated 2024)
